Measured values as given in the supplement of paper PMC10307832.

Columns and labels:
Assay in all cases: relative viability (nuclei count vs DMSO), 5 days (fraction); higher = more cells survive
[1] = compound: COc1cc(Nc2c(C#N)cnc3cc(OCCCN4CCN(C)CC4)c(OC)cc23)c(Cl)cc1Cl [Bosutinib]
How it was run: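 Vehicle-anchored 1536-well plates of lung cancer cell lines, held overnight at 37 °C, were pinned with five library-drug doses (not always all listed) spaced by √10. No medium change followed over the next 5 days, after which the cells were fixed, permeabilised and Hoechst-stained together and imaged at 4×. Nuclei were counted with MetaXpress, and viability is treated-well nuclei over vehicle-well nuclei, taken as a median across plates. Plates passed with control CV below 25% and at least one doubling.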

[2] = compound: COc1cc(Nc2c(C#N)cnc3cc(OCCCN4CCN(C)CC4)c(OC)cc23)c(Cl)cc1Cl [Bosutinib] + Cc1nc(NC(=O)N2CCC[C@H]2C(N)=O)sc1-c1ccnc(C(C)(C)C(F)(F)F)c1 [Alpelisib] (partner 2 µM)
How it was run: (§1)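 The day after seeding in 1536-well plates, lung cancer cell lines were treated by pin tool with a single drug, or with a fixed anchor-drug dose together with five library-drug doses (not always all listed) in √10 steps. After 5 days, a combined fix-and-stain solution (final 0.05% Triton X-100, 1% formaldehyde, 1 ug/ml Hoechst) was added. Nuclei counted on 4× images gave relative viability as treated counts over vehicle counts, reported as the median of duplicate plates.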

[3] = compound: COc1cc(Nc2c(C#N)cnc3cc(OCCCN4CCN(C)CC4)c(OC)cc23)c(Cl)cc1Cl [Bosutinib] + O=C(c1cc(Cc2n[nH]c(=O)c3ccccc23)ccc1F)N1CCN(C(=O)C2CC2)CC1 [Olaparib] (partner 8 µM)
How it was run: as §1

[4] = compound: COc1cc(Nc2c(C#N)cnc3cc(OCCCN4CCN(C)CC4)c(OC)cc23)c(Cl)cc1Cl [Bosutinib] + CS(=O)(=O)CCNCc1ccc(-c2ccc3ncnc(Nc4ccc(OCc5cccc(F)c5)c(Cl)c4)c3c2)o1 [Lapatinib] (partner 2 µM)
How it was run: as §1

[5] = compound: COc1cc(Nc2c(C#N)cnc3cc(OCCCN4CCN(C)CC4)c(OC)cc23)c(Cl)cc1Cl [Bosutinib] + CS(=O)(=O)N1CCN(Cc2cc3nc(-c4cccc5[nH]ncc45)nc(N4CCOCC4)c3s2)CC1 [Pictilisib] (partner 1 µM)
How it was run: as §1

[6] = compound: COc1cc(Nc2c(C#N)cnc3cc(OCCCN4CCN(C)CC4)c(OC)cc23)c(Cl)cc1Cl [Bosutinib] + C[C@]1(O)C[C@@H](c2nc(-c3ccc4ccc(-c5ccccc5)nc4c3)c3c(N)nccn32)C1 [Linsitinib] (partner 1 µM)
How it was run: as §1

[7] = compound: COc1cc(Nc2c(C#N)cnc3cc(OCCCN4CCN(C)CC4)c(OC)cc23)c(Cl)cc1Cl [Bosutinib] + COc1cc2c(Oc3ccc(NC(=O)C4(C(=O)Nc5ccc(F)cc5)CC4)cc3F)ccnc2cc1OCCCN1CCOCC1 [Foretinib] (partner 0.25 µM)
How it was run: as §1

[8] = compound: COc1cc(Nc2c(C#N)cnc3cc(OCCCN4CCN(C)CC4)c(OC)cc23)c(Cl)cc1Cl [Bosutinib] + C[C@@H](Oc1cc(-c2cnn(C3CCNCC3)c2)cnc1N)c1c(Cl)ccc(F)c1Cl [Crizotinib] (partner 1 µM)
How it was run: as §1

[9] = compound: COc1cc(Nc2c(C#N)cnc3cc(OCCCN4CCN(C)CC4)c(OC)cc23)c(Cl)cc1Cl [Bosutinib] + CC1(C)CCC(c2ccc(Cl)cc2)=C(CN2CCN(c3ccc(C(=O)NS(=O)(=O)c4ccc(N[C@H](CCN5CCOCC5)CSc5ccccc5)c(S(=O)(=O)C(F)(F)F)c4)cc3)CC2)C1 [Navitoclax] (partner 0.5 µM)
How it was run: as §1

[10] = compound: COc1cc(Nc2c(C#N)cnc3cc(OCCCN4CCN(C)CC4)c(OC)cc23)c(Cl)cc1Cl [Bosutinib] + CC(C)C[C@H](NC(=O)[C@H](Cc1ccccc1)NC(=O)c1cnccn1)B(O)O [Bortezomib] (partner 0.002 µM)
How it was run: as §1

[11] = compound: COc1cc(Nc2c(C#N)cnc3cc(OCCCN4CCN(C)CC4)c(OC)cc23)c(Cl)cc1Cl [Bosutinib] + O=C(CCCCCCC(=O)Nc1ccccc1)NO [Vorinostat] (partner 1 µM)
How it was run: as §1

**Q.** Which results are given for Calu-6?
**A.** relative viability ([1]; 0.01 µM): 1.01; relative viability ([1]; 0.03162 µM): 1.02; relative viability ([1]; 0.1 µM): 0.976; relative viability ([1]; 1 µM): 0.837; relative viability ([2]; first compound 0.01 µM): 0.927; relative viability ([2]; first compound 0.03162 µM): 1.07; relative viability ([2]; first compound 0.1 µM): 0.958; relative viability ([2]; first compound 1 µM): 0.824; relative viability ([3]; first compound 0.01 µM): 0.596; relative viability ([3]; first compound 0.03162 µM): 0.561; relative viability ([3]; first compound 0.1 µM): 0.598; relative viability ([3]; first compound 1 µM): 0.472; relative viability ([4]; first compound 0.01 µM): 1.15; relative viability ([4]; first compound 0.03162 µM): 1.14; relative viability ([4]; first compound 0.1 µM): 1.11; relative viability ([4]; first compound 1 µM): 0.893; relative viability ([5]; first compound 0.01 µM): 0.937; relative viability ([5]; first compound 0.03162 µM): 0.923; relative viability ([5]; first compound 0.1 µM): 0.867; relative viability ([5]; first compound 1 µM): 0.834; relative viability ([6]; first compound 0.01 µM): 1.05; relative viability ([6]; first compound 0.03162 µM): 0.957; relative viability ([6]; first compound 0.1 µM): 0.96; relative viability ([6]; first compound 1 µM): 0.794; relative viability ([7]; first compound 0.01 µM): 0.927; relative viability ([7]; first compound 0.03162 µM): 0.888; relative viability ([7]; first compound 0.1 µM): 0.932; relative viability ([7]; first compound 1 µM): 0.772; relative viability ([8]; first compound 0.01 µM): 0.747; relative viability ([8]; first compound 0.03162 µM): 0.796; relative viability ([8]; first compound 0.1 µM): 0.798; relative viability ([8]; first compound 1 µM): 0.788; relative viability ([9]; first compound 0.01 µM): 0.814; relative viability ([9]; first compound 0.03162 µM): 0.801; relative viability ([9]; first compound 0.1 µM): 0.757; relative viability ([9]; first compound 1 µM): 0.821; relative viability ([10]; first compound 0.01 µM): 1.01; relative viability ([10]; first compound 0.03162 µM): 0.954; relative viability ([10]; first compound 0.1 µM): 1.02; relative viability ([10]; first compound 1 µM): 0.905

**Q.** How did the relative viability ([1]; 0.01 µM) turn out when EBC-1 was run?
**A.** Its relative viability is 1.05.

**Q.** And the relative viability ([1]; 0.03162 µM)?
**A.** The relative viability was 0.956.

**Q.** And the relative viability ([1]; 0.1 µM)?
**A.** Its relative viability is 0.984.

**Q.** What about the relative viability ([1]; 1 µM) of the same cell line?
**A.** Its relative viability is 0.881.

**Q.** What about the relative viability ([2]; first compound 0.01 µM) of the same cell line?
**A.** The relative viability was 0.787.

**Q.** What about the relative viability ([2]; first compound 0.03162 µM) of the same cell line?
**A.** Its relative viability is 0.798.

**Q.** And the relative viability ([2]; first compound 0.1 µM)?
**A.** Its relative viability is 0.833.

**Q.** What about the relative viability ([2]; first compound 1 µM) of the same cell line?
**A.** The relative viability was 0.736.

**Q.** And the relative viability ([3]; first compound 0.01 µM)?
**A.** Its relative viability is 0.693.

**Q.** What about the relative viability ([3]; first compound 0.03162 µM) of the same cell line?
**A.** Its relative viability is 0.737.

**Q.** And the relative viability ([3]; first compound 0.1 µM)?
**A.** The relative viability was 0.659.

**Q.** And the relative viability ([3]; first compound 1 µM)?
**A.** The relative viability was 0.658.

**Q.** What about the relative viability ([4]; first compound 0.01 µM) of the same cell line?
**A.** The relative viability was 0.216.

**Q.** And the relative viability ([4]; first compound 0.03162 µM)?
**A.** Its relative viability is 0.221.

**Q.** And the relative viability ([4]; first compound 0.1 µM)?
**A.** The relative viability was 0.187.

**Q.** And the relative viability ([4]; first compound 1 µM)?
**A.** The relative viability was 0.204.

**Q.** And the relative viability ([5]; first compound 0.01 µM)?
**A.** Its relative viability is 0.347.

**Q.** And the relative viability ([5]; first compound 0.03162 µM)?
**A.** The relative viability was 0.463.

**Q.** And the relative viability ([5]; first compound 0.1 µM)?
**A.** Its relative viability is 0.404.

**Q.** What about the relative viability ([5]; first compound 1 µM) of the same cell line?
**A.** The relative viability was 0.358.

**Q.** And the relative viability ([6]; first compound 0.01 µM)?
**A.** The relative viability was 0.93.

**Q.** What about the relative viability ([6]; first compound 0.03162 µM) of the same cell line?
**A.** The relative viability was 0.906.

**Q.** What about the relative viability ([6]; first compound 0.1 µM) of the same cell line?
**A.** Its relative viability is 0.937.

**Q.** What about the relative viability ([6]; first compound 1 µM) of the same cell line?
**A.** Its relative viability is 0.916.

**Q.** What about the relative viability ([7]; first compound 0.01 µM) of the same cell line?
**A.** Its relative viability is 0.115.

**Q.** What about the relative viability ([7]; first compound 0.03162 µM) of the same cell line?
**A.** Its relative viability is 0.11.

**Q.** What about the relative viability ([7]; first compound 0.1 µM) of the same cell line?
**A.** The relative viability was 0.104.

**Q.** And the relative viability ([7]; first compound 1 µM)?
**A.** Its relative viability is 0.0985.

**Q.** And the relative viability ([8]; first compound 0.01 µM)?
**A.** The relative viability was 0.199.

**Q.** And the relative viability ([8]; first compound 0.03162 µM)?
**A.** The relative viability was 0.185.

**Q.** What about the relative viability ([8]; first compound 0.1 µM) of the same cell line?
**A.** Its relative viability is 0.183.

**Q.** And the relative viability ([8]; first compound 1 µM)?
**A.** Its relative viability is 0.191.

**Q.** And the relative viability ([9]; first compound 0.01 µM)?
**A.** The relative viability was 0.393.

**Q.** And the relative viability ([9]; first compound 0.03162 µM)?
**A.** Its relative viability is 0.461.

**Q.** And the relative viability ([9]; first compound 0.1 µM)?
**A.** Its relative viability is 0.519.

**Q.** What about the relative viability ([9]; first compound 1 µM) of the same cell line?
**A.** The relative viability was 0.609.

**Q.** What about the relative viability ([10]; first compound 0.01 µM) of the same cell line?
**A.** Its relative viability is 0.484.

**Q.** And the relative viability ([10]; first compound 0.03162 µM)?
**A.** The relative viability was 0.492.

**Q.** What about the relative viability ([10]; first compound 0.1 µM) of the same cell line?
**A.** The relative viability was 0.513.

**Q.** And the relative viability ([10]; first compound 1 µM)?
**A.** Its relative viability is 0.523.

**Q.** Which results are given for IA-LM?
**A.** relative viability ([1]; 0.01 µM): 0.998; relative viability ([1]; 0.03162 µM): 1.08; relative viability ([1]; 0.1 µM): 0.967; relative viability ([1]; 1 µM): 1.01; relative viability ([2]; first compound 0.01 µM): 0.832; relative viability ([2]; first compound 0.03162 µM): 0.733; relative viability ([2]; first compound 0.1 µM): 0.931; relative viability ([2]; first compound 1 µM): 0.674; relative viability ([11]; first compound 0.01 µM): 1.06; relative viability ([11]; first compound 0.03162 µM): 0.945; relative viability ([11]; first compound 0.1 µM): 0.894; relative viability ([11]; first compound 1 µM): 0.947; relative viability ([3]; first compound 0.01 µM): 0.964; relative viability ([3]; first compound 0.03162 µM): 0.927; relative viability ([3]; first compound 0.1 µM): 0.858; relative viability ([3]; first compound 1 µM): 0.77; relative viability ([4]; first compound 0.01 µM): 0.811; relative viability ([4]; first compound 0.03162 µM): 0.848; relative viability ([4]; first compound 0.1 µM): 0.92; relative viability ([4]; first compound 1 µM): 0.798; relative viability ([5]; first compound 0.03162 µM): 0.365; relative viability ([5]; first compound 0.1 µM): 0.317; relative viability ([5]; first compound 1 µM): 0.359; relative viability ([6]; first compound 0.01 µM): 0.637; relative viability ([6]; first compound 0.03162 µM): 0.744; relative viability ([6]; first compound 0.1 µM): 0.754; relative viability ([6]; first compound 1 µM): 0.745; relative viability ([7]; first compound 0.01 µM): 1.1; relative viability ([7]; first compound 0.03162 µM): 1.18; relative viability ([7]; first compound 0.1 µM): 1.14; relative viability ([7]; first compound 1 µM): 0.982; relative viability ([8]; first compound 0.01 µM): 0.733; relative viability ([8]; first compound 0.03162 µM): 0.777; relative viability ([8]; first compound 0.1 µM): 0.839; relative viability ([8]; first compound 1 µM): 0.688; relative viability ([9]; first compound 0.01 µM): 0.779; relative viability ([9]; first compound 0.03162 µM): 0.816; relative viability ([9]; first compound 0.1 µM): 0.842; relative viability ([9]; first compound 1 µM): 0.764; relative viability ([10]; first compound 0.01 µM): 0.797; relative viability ([10]; first compound 0.03162 µM): 0.827; relative viability ([10]; first compound 0.1 µM): 0.881; relative viability ([10]; first compound 1 µM): 0.8
